“Also recorded” adds a separate entry of the source. Like-named read-outs stand apart in the source and are kept apart here.
What was measured:
[1] = Body weights of tumor-bearing mice during treatment; format: in vivo; conditions: for Difference in body weight (BW), Vehicle vs. Rasagiline PO / Difference in percent change in body weight (% BW), Vehicle vs. Rasagiline PO: 15 mg/kg PO daily
Description: Body weights were measured prior to dosing and every three days concurrent with tumor measurements for both patch removal/application and oral dosing. Body weights were transformed into percent change in body weight using the formula: […] […] Cisplatin was administered once-weekly via intraperitoneal injection.

[2] = Survival / mortality of tumor-bearing mice during treatment; format: in vivo
Description: The percentage of animal mortality and time of death was recorded for every group in the study. Animals were defined as moribund and euthanized if one or more of the following criteria were met: prolonged or excessive pain or distress as defined by clinical observations such as: prostration, hunched posture, paralysis/paresis, distended abdomen, ulcerations, abscesses, seizures and/or hemorrhages; loss of more than 20% of their body weight; if the tumor volumes exceeded 2,000 mm^3 or the tumors ulcerated, bled or produced exudates.
Survival of the animals was recorded for the entire experiment. If an animal died or was euthanized due to morbidity during the experiment, its day of death was designated as “1”. If an animal survived the entire time course of the experiment, the last day of observation was designated as a “0”. Survival data was analyzed using a Kaplan-Meier Survival analysis and survival curves were compared using a Log-rank test. P values less than 0.05 were considered significant.

[3] = in vivo; conditions: athymic nude, mouse, po, 15 mg/kg
Description: At the end of the 21-day treatment duration, 2 animals from each group were euthanized at each of the following time points by isoflurane inhalation (0.5, 1, 2, 4, 8, and 24 hours after the last administration of the test articles including the application of fresh transdermal patches). For the 15 mg/kg PO Rasagiline group, two mice were bled twice (cheek bleed and terminal cardiac) so that ten mice could supply blood samples for six time points. Blood samples were collected from these animals via cardiac puncture into blood collection tubes containing lithium heparin. The blood samples were processed within 30 minutes of collection by centrifugation to prepare plasma samples. The plasma was separated from the cellular fraction and frozen on dry ice. Plasma samples were stored at −80° C. until they were shipped to an analytical laboratory designated by the Sponsor.
To compare rasagiline exposure by both dosing routes, blood was collected from two animals at each time point by sparse sampling techniques via cardiocentesis prior to euthanasia. Two samples were collected each from two animals in the oral dose group by collecting the first sample from the submandibular vein at 0.25 hours and cardiocentesis at eight hours. Blood was collected from animals administered oral rasagiline at 0.25, 0.5, 1, 2, 4 and 8 hours after the last oral dose. Animals administered the transdermal patches had blood collected at 0.5, 1, 2, 4, and 24 hours on the last application day. Blood collected from animals in the naïve, vehicle, and placebo patch groups determined baseline values and were used for pre-dose levels. […] Mean values for each time point within the rasagiline groups were used to calculate the mean AUC(0-t) value. The AUC(0-8) derived for the oral rasagiline group was multiplied by three to estimate the AUC(0-24) exposure. The ratio of AUC(0-24) for each of the baseline transdermal groups was divided by the estimated oral AUC(0-24) to compare exposures between the two dosing routes.

[4] = oral administration (0.45 mg/kg), cited from earlier work
[5] = test system: SKMEL28 human melanoma cell line; assay: SKMEL28 melanoma xenograft tumor volume / growth in athymic mice; conditions: for tumor volume / tumor growth on the last day of the experiment (in words) / tumor growth rates (in words): compared to the no treatment group
Description: The SKMEL28 human melanoma cell line was obtained from ATCC and grown according to the vendor's instructions until a log growth phase was obtained. The cells were harvested from the culture vessel, washed once and re-suspended in serum free medium and matrigel mixed at a 1:1 ratio.
Female athymic (nu/nu) mice were used for in vivo animal studies. The mice were 7-8 weeks old at the time of tumor implantation. Six groups of mice were included in the study, with 10 animals in each group.
Mice were inoculated subcutaneously in the scapular area in a volume of 0.2 mL containing ˜10×10^6 SKMEL28 cells.
Tumor dimensions were measured twice a week with digital calipers and tumor volumes were calculated from the dimensions with the formula: Tumor Volume (m)=(a^2×b/2); where “a” was the smallest dimension and “b” was the largest dimension. […] Test article treatment was initiated on the same day as assignment to treatment groups. Tumor dimensions were measured and tumor volumes calculated every three days (at the same time as patch removal and application) for 21 days. Tumor volumes were also transformed into percent change in tumor volume using the formula: Percent Change TV=(TVi−TVo)/TVo×100%; where TV was tumor volume, TVi was the tumor volume at the measurement time and TVo was the initial tumor volume. Differences between treatment groups for both the raw tumor volumes and percent changes in tumor volume versus time data sets were evaluated with Two-way ANOVAs. Pair-wise differences between the no treatment and test article treatment groups on each measurement day were evaluated with post hoc Bonferroni's T-tests. In order to evaluate the growth rates of the tumors between treatments, straight lines were fitted through the different data sets (percent change in tumor volumes versus time) by least squares regression. Slopes of the lines were compared initially between all groups and then in a pair-wise fashion between the “no treatment” and “test article” treated groups using an F-test. In all cases, P values less than 0.05 were considered significant.
Test article administrations were initiated on the same day as treatment group assignments and according to the Experimental Grouping Table. Rasagiline administration consisted of either oral gavage (15 mg/kg PO, daily for 21 days) or topical transdermal patch treatment. Cisplatin was administered once-weekly via intraperitoneal injection. Transdermal patches were applied to the intrascapular (i.e., directly over the tumor) and chest areas and maintained in position with a single BandAid™. Fresh patches were applied to the same locations every third day. The skin was cleaned prior to the first patch application with clorehexadene and as necessary prior to repeat applications. […] Mice were conscious and lightly restrained for patch removal and application. The patches were 0.75 or 1.2 in^2.

[6] = oral gavage 15 mg/kg, listed as rasagiline mesylate, 15 mg/kg
[7] = oral gavage 15 mg/kg, listed as rasagiline, 15 mg/kg

C#CCNC1CCc2ccccc21 (stereo not shown) [Rasagiline, N-propargyl-1-aminoindan]
Difference in body weight (BW), Vehicle vs. Rasagiline PO ([1]; Day 1): 0.4100 | Difference in percent change in body weight (% BW), Vehicle vs. Rasagiline PO ([1]; Day 1): 0.0000% | Difference in body weight (BW), Vehicle vs. Rasagiline PO ([1]; Day 4): −0.1100 | Difference in percent change in body weight (% BW), Vehicle vs. Rasagiline PO ([1]; Day 4): −2.229% | Difference in body weight (BW), Vehicle vs. Rasagiline PO ([1]; Day 7): 0.2200 | Difference in percent change in body weight (% BW), Vehicle vs. Rasagiline PO ([1]; Day 7): −0.7052% | Difference in body weight (BW), Vehicle vs. Rasagiline PO ([1]; Day 10): 0.3400 | Difference in percent change in body weight (% BW), Vehicle vs. Rasagiline PO ([1]; Day 10): −0.2490% | Difference in body weight (BW), Vehicle vs. Rasagiline PO ([1]; Day 13): 0.1700 | Difference in percent change in body weight (% BW), Vehicle vs. Rasagiline PO ([1]; Day 13): −1.053% | Difference in body weight (BW), Vehicle vs. Rasagiline PO ([1]; Day 16): 0.2800 | Difference in percent change in body weight (% BW), Vehicle vs. Rasagiline PO ([1]; Day 16): −0.4240% | Difference in body weight (BW), Vehicle vs. Rasagiline PO ([1]; Day 22): −0.5500 | Difference in percent change in body weight (% BW), Vehicle vs. Rasagiline PO ([1]; Day 22): −4.072% | percent change in body weight (in words) ([1]; oral 15 mg/kg daily, compared with the no treatment group, 15 mg/kg): steadily reduced body weight from day 13 onwards | survival (in words) ([2]; orally or transdermally, 21 days): survived to the end of the study; also recorded: survived the dosing period | Cmax [3]: 899 ng/mL | Tmax [3]: 15 min | concentration at 0.25 h [3]: 899 ng/mL | concentration at 0.5 h [3]: 370 ng/mL | concentration at 1 h [3]: 216 ng/mL | concentration at 2 h [3]: 82.5 ng/mL | concentration at 4 h [3]: 28.4 ng/mL | concentration at 8 h [3]: 19.9 ng/mL | time of mean maximal plasma concentration [3]: 15 min | AUC(0-t) ([3]; Mean AUC(0-24)): 774 ng·h/mL | AUC(0-t) ([3]; estimated exposure after 24 hours (AUC(0-8) multiplied by three)): 2320 ng·h/mL | Maximum % of dose ([4]; Fat): 8.47 % of dose | Time to maximal exposure ([4]; Fat): 0.25 | Maximum % of dose ([4]; Kidneys): 3.89 % of dose | Time to maximal exposure ([4]; Kidneys): 0.25 | Maximum % of dose ([4]; Large intestine): 1.83 % of dose | Time to maximal exposure ([4]; Large intestine): 1 | Maximum % of dose ([4]; Liver): 13.20 % of dose | Time to maximal exposure ([4]; Liver): 0.25 | Maximum % of dose ([4]; Lung): 1.46 % of dose | Time to maximal exposure ([4]; Lung): 0.25 | Maximum % of dose ([4]; Muscle): 24.11 % of dose | Time to maximal exposure ([4]; Muscle): 0.25 | Maximum % of dose ([4]; Skin): 13.20 % of dose | Time to maximal exposure ([4]; Skin): 0.25 | Maximum % of dose ([4]; Small intestine): 8.76 % of dose | Time to maximal exposure ([4]; Small intestine): 0.25 | Maximum % of dose ([4]; Stomach): 4.73 % of dose | Time to maximal exposure ([4]; Stomach): 0.5 | Maximum % of dose ([4]; Whole Blood): 4.54 % of dose | Time to maximal exposure ([4]; Whole Blood): 0.25 | SLOPE, best-fit value of linear fit to percent changes in tumor volume versus time ([5]; 15 mg/kg PO daily, 21 days): 26.64 | Difference in percent change in tumor volume (% TV), Vehicle vs. Rasagiline 15 mg/kg PO ([5]; Day 1, 15 mg/kg PO daily): 0.0000% | Difference in tumor volume (TV), Vehicle vs. Rasagiline (15 mg/kg PO) ([5]; Day 1, 15 mg/kg PO daily): −0.2606 | Difference in percent change in tumor volume (% TV), Vehicle vs. Rasagiline 15 mg/kg PO ([5]; Day 4, 15 mg/kg PO daily): −12.56% | Difference in tumor volume (TV), Vehicle vs. Rasagiline (15 mg/kg PO) ([5]; Day 4, 15 mg/kg PO daily): −15.03 | Difference in percent change in tumor volume (% TV), Vehicle vs. Rasagiline 15 mg/kg PO ([5]; Day 7, 15 mg/kg PO daily): −36.19% | Difference in tumor volume (TV), Vehicle vs. Rasagiline (15 mg/kg PO) ([5]; Day 7, 15 mg/kg PO daily): −40.95 | Difference in percent change in tumor volume (% TV), Vehicle vs. Rasagiline 15 mg/kg PO ([5]; Day 10, 15 mg/kg PO daily): −42.92% | Difference in tumor volume (TV), Vehicle vs. Rasagiline (15 mg/kg PO) ([5]; Day 10, 15 mg/kg PO daily): −50.83 | Difference in percent change in tumor volume (% TV), Vehicle vs. Rasagiline 15 mg/kg PO ([5]; Day 13, 15 mg/kg PO daily): −71.82% | Difference in tumor volume (TV), Vehicle vs. Rasagiline (15 mg/kg PO) ([5]; Day 13, 15 mg/kg PO daily): −92.36 | Difference in percent change in tumor volume (% TV), Vehicle vs. Rasagiline 15 mg/kg PO ([5]; Day 16, 15 mg/kg PO daily): −98.35% | Difference in tumor volume (TV), Vehicle vs. Rasagiline (15 mg/kg PO) ([5]; Day 16, 15 mg/kg PO daily): −128.8 | Difference in percent change in tumor volume (% TV), Vehicle vs. Rasagiline 15 mg/kg PO ([5]; Day 22, 15 mg/kg PO daily): −153.3% | Difference in tumor volume (TV), Vehicle vs. Rasagiline (15 mg/kg PO) ([5]; Day 22, 15 mg/kg PO daily): −154.4 | tumor volume / tumor growth on the last day of the experiment (in words) ([5]; oral gavage 15 mg/kg, 15 mg/kg): significantly reduced tumor volume | tumor growth rates (in words) [5, 6]: significantly reduced absolute tumor volumes as well as tumor growth rates | tumor volume / tumor growth on the last day of the experiment (in words) [5, 6]: significantly reduced absolute tumor volumes | tumor growth rates (in words) [5, 7]: significantly slowed; also recorded: significantly reduced tumor growth rates | tumor volume / tumor growth on the last day of the experiment (in words) [5, 7]: significant reductions in tumor growth | reduction in percent change in tumor volume ([5]; oral gavage 15 mg/kg, compared to the oral vehicle control): 22% | tumor growth rates (in words) ([5]; transdermal patch): significantly reduced absolute tumor volumes as well as tumor growth rates | tumor volume / tumor growth on the last day of the experiment (in words) ([5]; transdermal patch): significantly reduced absolute tumor volumes

N.N.[Cl][Pt][Cl] [Cisplatin]
body weight loss (in words) ([1]; 10 mg/kg IP, versus any other treatment group): greater body weight loss | survival versus No Treatment group (Logrank test; in words) ([2]; 10 mg/kg IP every 7 days): Yes | animals that died ([2]; 10 mg/kg IP every 7 days, group of 10, deaths on Days 13-17): 7 out of the 10 | SLOPE, best-fit value of linear fit to percent changes in tumor volume versus time ([5]; 10 mg/kg IP every 7 days): 13.16 | tumor growth rates (in words) ([5]; 10 mg/kg IP): significantly slowed; also recorded: significantly reduced tumor growth rates | reduction in the percent change in tumor volumes ([5]; 10 mg/kg IP, compared to the oral vehicle treatment, prior to death of the majority of the animals): 49%

Source: US9913812B2, “Methods for the treatment of skin neoplasms” (TEIKOKU PHARMA USA, INC., priority 2011, dated 2018)
